{
  "source": "paper PMC6934184",
  "about": "“Selective DNA-PKcs inhibition extends the therapeutic index of localized radiotherapy and chemotherapy” (The Journal of Clinical Investigation, 2019)",
  "target": "T1, EPHB3 (Homo sapiens, UniProt P54753)",
  "T1 construct": "purchased Thermo Fisher Scientific (Life Technologies) SelectScreen",
  "T1 sequence (P54753 34-998)": "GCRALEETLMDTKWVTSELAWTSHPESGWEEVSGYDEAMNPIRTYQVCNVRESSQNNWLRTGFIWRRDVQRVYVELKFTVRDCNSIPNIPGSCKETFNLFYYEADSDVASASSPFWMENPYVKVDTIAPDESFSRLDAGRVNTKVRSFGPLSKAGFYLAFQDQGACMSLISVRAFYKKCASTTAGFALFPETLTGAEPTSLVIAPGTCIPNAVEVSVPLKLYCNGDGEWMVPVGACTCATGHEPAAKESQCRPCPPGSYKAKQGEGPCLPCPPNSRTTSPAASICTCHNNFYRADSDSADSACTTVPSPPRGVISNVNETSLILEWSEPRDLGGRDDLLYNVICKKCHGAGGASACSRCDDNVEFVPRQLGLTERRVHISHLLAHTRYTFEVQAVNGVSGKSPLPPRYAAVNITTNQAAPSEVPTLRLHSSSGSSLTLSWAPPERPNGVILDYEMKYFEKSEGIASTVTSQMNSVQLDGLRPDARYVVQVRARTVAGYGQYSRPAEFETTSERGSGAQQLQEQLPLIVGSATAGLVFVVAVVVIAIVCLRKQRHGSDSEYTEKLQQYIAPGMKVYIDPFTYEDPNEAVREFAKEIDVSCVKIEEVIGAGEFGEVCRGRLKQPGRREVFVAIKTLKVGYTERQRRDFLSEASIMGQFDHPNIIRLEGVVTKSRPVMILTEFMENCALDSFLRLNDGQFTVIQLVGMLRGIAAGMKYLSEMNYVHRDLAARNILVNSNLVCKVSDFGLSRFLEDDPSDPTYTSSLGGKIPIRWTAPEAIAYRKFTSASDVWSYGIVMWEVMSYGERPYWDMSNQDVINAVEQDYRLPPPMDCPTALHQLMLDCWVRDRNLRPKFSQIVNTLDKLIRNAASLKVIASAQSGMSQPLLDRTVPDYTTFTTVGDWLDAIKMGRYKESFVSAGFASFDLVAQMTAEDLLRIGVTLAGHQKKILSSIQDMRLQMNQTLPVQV",
  "test": "SelectScreen Z'LYTE",
  "format": "biochemical",
  "in_short": "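NU5455 was profiled across the SelectScreen Broad panel of kinase activity and binding assays. Z'LYTE reactions such as CSF1R ran at apparent Km ATP, while the Adapta CAMK1 assay used ATP listed as 10. Values are given as percent.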",
  "data": [
    {"compound": "CN(C(=O)CN1CCOCC1)c1ccc2sc3c(-c4cccc5c(=O)cc(N6CC7CCC(C6)O7)oc45)cccc3c2c1", "note": "[NU5455]", "values": [
      {"measurement": "inhibition at 1 µM", "result": 1.1, "unit": "%"}
    ]}
  ]
}
